The target of assay [1] is Cyclin-dependent kinase 1 (Homo sapiens, UniProt P06493).
Description: Inhibitory activity against human cyclin-dependent kinase 1 (CDK1)
For assay [2], the target named is Cyclin-dependent kinase 2 (Homo sapiens, UniProt P24941).
Description: Inhibitory activity against human cyclin-dependent kinase 2 (CDK2)

Where only a bound is given, the exact number is not on record here.

Chain of Cyclin-dependent kinase 1 (P06493 whole entry): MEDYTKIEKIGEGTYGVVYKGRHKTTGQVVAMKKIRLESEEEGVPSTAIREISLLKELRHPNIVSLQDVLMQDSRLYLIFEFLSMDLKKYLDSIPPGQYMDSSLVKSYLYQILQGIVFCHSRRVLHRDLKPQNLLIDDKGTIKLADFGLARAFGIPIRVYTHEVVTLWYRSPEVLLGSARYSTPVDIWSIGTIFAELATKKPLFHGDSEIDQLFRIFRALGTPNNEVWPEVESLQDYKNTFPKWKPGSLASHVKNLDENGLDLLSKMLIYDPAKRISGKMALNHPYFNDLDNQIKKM

With `O=C1Nc2ccc3ncsc3c2/C1=C/Nc1ccc(S(=O)(=O)NCc2ccccc2)cc1`, the IC50 was determined as 52 nM in assay [1] and 5.6 nM in assay [2].
For `NS(=O)(=O)c1ccc(NN=C2C(=O)Nc3cccc([N+](=O)[O-])c32)cc1`, the IC50 in assay [1] is more than 1000 nM; in assay [2] it was 2400 nM.
Consider `C/C(Nc1ccc(S(N)(=O)=O)cc1)=C1/C(=O)Nc2ccc(-c3cnco3)cc21`, for which the IC50 is 7.1 nM in assay [1] and 2 nM in assay [2].
Consider `COCCOCCOCCOCCN(C)S(=O)(=O)c1ccc(N/C=C2\C(=O)Nc3ccc4ncsc4c32)cc1`, for which the values for the IC50 in assay [1] and in assay [2] were 45 nM and 1 nM, respectively.
Take `NS(=O)(=O)c1ccc(NN=C2C(=O)Nc3ccc4[nH]nc(Cl)c4c32)cc1`: the IC50 in assay [1] is 83 nM; in assay [2] it was 2.2 nM.
On to `NS(=O)(=O)c1ccc(NN=C2C(=O)Nc3cc(Br)ccc32)cc1`, for which the IC50 in assay [1] turned out to be 520 nM; in assay [2], 43 nM.
For the molecule `CS(=O)(=O)c1ccc2c(c1)C(=NNc1ccc(S(N)(=O)=O)cc1)C(=O)N2`, the figures for the IC50 in assay [1] and in assay [2] were 350 nM and 16 nM, respectively.
On to `NS(=O)(=O)c1ccc(N/N=C2\C(=O)Nc3ccc4ncsc4c32)cc1`, for which the IC50 in assay [1] worked out at 43 nM; in assay [2], 7.1 nM.
Consider `CS(=O)(=O)Cc1ccc(N/C=C2\C(=O)Nc3ccc4ncsc4c32)cc1`, for which the IC50 in assay [1] stood at 1200 nM; in assay [2], 50 nM.
Consider `C/C(Nc1ccc(S(N)(=O)=O)cc1)=C1/C(=O)Nc2ccc(Cl)cc21`, for which the IC50 in assay [1] came to 220 nM; in assay [2], 22 nM.
As for `NS(=O)(=O)c1ccc(NN=C2C(=O)Nc3ccc(C(=O)NCc4ccncc4)cc32)cc1` [GW300657X], the IC50 in assay [1] was determined as 74 nM; in assay [2], 8.9 nM.
In the case of `NS(=O)(=O)c1ccc(NN=C2C(=O)Nc3ccc(C(=O)NCCCn4ccnc4)cc32)cc1` [GW290597X], the IC50 in assay [1] was found to be 230 nM; in assay [2], 25 nM.
Regarding `NC(=O)c1ccc2c(c1)C(=NNc1ccc(S(N)(=O)=O)cc1)C(=O)N2`, the IC50 came out at 2.8 nM in assay [1] and 4.5 nM in assay [2].
As to `NS(=O)(=O)c1ccc(NN=C2C(=O)Nc3ccc(F)cc32)cc1`, the IC50 in assay [1] was found to be 290 nM; in assay [2] it was 34 nM.
As for `NS(=O)(=O)c1ccc(NN=C2C(=O)Nc3ccc(S(N)(=O)=O)cc32)cc1`, the IC50 was 170 nM in assay [1] and 43 nM in assay [2].
As for `NS(=O)(=O)Cc1ccc(N/C=C2\C(=O)Nc3ccc4ncsc4c32)cc1`, the figures for the IC50 in assay [1] and in assay [2] were 100 nM and 7.5 nM, respectively.
Take `Cc1cccc2c1NC(=O)/C2=C\Nc1ccc(S(N)(=O)=O)cc1`: the IC50 in assay [1] and in assay [2] was more than 10000 nM each time.
With `CCOC(=O)c1cccc2c1/C(=C/Nc1ccc(S(N)(=O)=O)cc1)C(=O)N2`, the IC50 was found to be 130 nM in assay [1] and 8.9 nM in assay [2].
Consider `NS(=O)(=O)c1ccc(N/C=C2\C(=O)Nc3ccc4ncccc4c32)cc1`, for which the IC50 turned out to be 15 nM in assay [1] and 1.5 nM in assay [2].
For the molecule `NS(=O)(=O)c1ccc(NN=C2C(=O)Nc3ccc4[nH]ncc4c32)cc1`, the IC50 in assay [1] was 120 nM; in assay [2], 13 nM.
As to `CN(C)C(=O)c1ccc2c(c1)C(=NNc1ccc(S(N)(=O)=O)cc1)C(=O)N2`, the half-inhibitory concentration (IC50) in assay [1] was 130 nM; in assay [2], 17 nM.
In the same order, the values of `COCCOCCOCCOCCNS(=O)(=O)c1ccc(N/C=C2\C(=O)Nc3ccc4ncsc4c32)cc1` are 72 nM and 4.5 nM.
Turning to `NS(=O)(=O)c1ccc(/N=N/c2c(O)[nH]c3cccc(I)c23)cc1`, the 50% inhibitory concentration (IC50) in assay [1] worked out at 110 nM; in assay [2], 4.6 nM.
For `NS(=O)(=O)c1ccc(N/C=C2\C(=O)Nc3ccccc32)cc1`, the results for the IC50 in assay [1] and in assay [2] were 3000 nM and 690 nM, respectively.
The corresponding values for `CC(C)c1ccc2c(c1)NC(=O)/C2=N/Nc1ccc(S(N)(=O)=O)cc1` [GW300653X] are 790 nM and 75 nM.
With `Cc1cccc(C)c1NS(=O)(=O)c1ccc(N/C=C2\C(=O)Nc3ccc4ncsc4c32)cc1`, the IC50 in assay [1] was 14000 nM; in assay [2] it was 281 nM.
`Cc1ccc2c(c1Cl)C(=NNc1ccc(S(N)(=O)=O)cc1)C(=O)N2`: the results for the IC50 in assay [1] and in assay [2] were 250 nM and 13 nM, respectively.
In the case of `NS(=O)(=O)c1ccc(NN=C2C(=O)Nc3cccc(Oc4ccccc4)c32)cc1`, the IC50 is 290 nM in assay [1] and 13 nM in assay [2].
As to `NS(=O)(=O)c1ccc(NN=C2C(=O)Nc3ccc(S(=O)(=O)O)cc32)cc1`, the IC50 in assay [1] worked out at 130 nM; in assay [2], 15 nM.
The corresponding values for `Cc1ccc2c(c1)C(=NNc1ccc(S(N)(=O)=O)cc1)C(=O)N2` [GW275944X] are 330 nM and 46 nM.
On to `CC(C)CC(=O)c1ccc2c(c1)/C(=C/Nc1ccc(S(N)(=O)=O)cc1)C(=O)N2`, for which the IC50 in assay [1] is 16 nM; in assay [2], 1.9 nM.
For the molecule `CC(C)=Cc1cccc2c1C(=NNc1ccc(S(N)(=O)=O)cc1)C(=O)N2` [GW396574X], the IC50 in assay [1] was found to be 15 nM; in assay [2] it was 1.5 nM.
In the same order, the values of `NS(=O)(=O)c1ccc(N/C=C2\C(=O)Nc3ccc(C(=O)O)cc32)cc1` are 150 nM and 28 nM.
For the molecule `CC(=O)NS(=O)(=O)c1ccc(N/C=C2\C(=O)Nc3ccc4ncsc4c32)cc1`, the IC50 came out at 910 nM in assay [1] and 75 nM in assay [2].
As to `NS(=O)(=O)c1ccc(NN=C2C(=O)Nc3ccc([N+](=O)[O-])cc32)cc1`, the results for the IC50 in assay [1] and in assay [2] were 710 nM and 15 nM, respectively.
`CNS(=O)(=O)Cc1ccc(N/C=C2\C(=O)Nc3ccc4ncsc4c32)cc1`: the results for the IC50 in assay [1] and in assay [2] were 170 nM and 26 nM, respectively.
Consider `CNS(=O)(=O)c1ccc(N/C=C2\C(=O)Nc3ccc4ncsc4c32)cc1`, for which the IC50 was found to be 64 nM in assay [1] and 5.6 nM in assay [2].
As for `Cc1c([N+](=O)[O-])ccc2c1C(=NNc1ccc(S(N)(=O)=O)cc1)C(=O)N2`, the half-inhibitory concentration (IC50) in assay [1] came to 87 nM; in assay [2], 4.6 nM.
For `NS(=O)(=O)c1ccc(N/N=C2\C(=O)Nc3ccc(-c4cnco4)cc32)cc1` [GW276655X], the IC50 in assay [1] came to 10 nM; in assay [2], 2.3 nM.
In the case of `O=C1Nc2ccc(-c3cnco3)cc2/C1=C/Nc1ccc2c(c1)CS(=O)(=O)C2`, the IC50 in assay [1] was found to be 19 nM; in assay [2] it was 8.9 nM.
For `COc1ccc2c(c1)C(=NNc1ccc(S(N)(=O)=O)cc1)C(=O)N2`, the IC50 in assay [1] turned out to be 210 nM; in assay [2], 12 nM.
`NC(=O)c1cccc2c1C(=NNc1ccc(S(N)(=O)=O)cc1)C(=O)N2`: the IC50 in assay [1] and in assay [2] was more than 1000 nM each time.
As to `Nc1ccc2c(c1)C(=NNc1ccc(S(N)(=O)=O)cc1)C(=O)N2`, the figures for the IC50 in assay [1] and in assay [2] were 1400 nM and 74 nM, respectively.
Turning to `NS(=O)(=O)c1ccc(N/C=C2\C(=O)Nc3ccc(-c4cnco4)cc32)cc1`, the IC50 in assay [1] worked out at 17 nM; in assay [2], 2.5 nM.
On to `O=C1Nc2ccc3ncsc3c2/C1=C/Nc1ccc(CS(=O)(=O)NCCO)cc1`, for which the IC50 in assay [1] was found to be 200 nM; in assay [2], 13 nM.
For the molecule `CC(C)Oc1cccc2c1C(=NNc1ccc(S(N)(=O)=O)cc1)C(=O)N2`, the IC50 in assay [1] was found to be 41 nM; in assay [2], 3.4 nM.
Consider `CCc1ccc2c(c1)NC(=O)C2=NNc1ccc(S(N)(=O)=O)cc1`, for which the IC50 in assay [1] was determined as 660 nM; in assay [2] it was 21 nM.
